Laboratory results from PMC10246881 (2023).

What was measured:
[1] = test system: (poly[dA-dT])2 (DNA, polymer) AT; test: intrinsic fluorescence titration; conditions: 100 mM NaCl; 50 mM Tris-HCl, 0.1 mM EDTA, pH 7.4; 2 μM ridinilazole, polymer titrated
[2] = test system: dsOligo 2 (CGCAAATTTGCG) (DNA, duplex) CGCAAATTTGCG; test: intrinsic fluorescence titration, tight-binding linear fit; conditions: 100 mM NaCl; 50 mM Tris-HCl, 0.1 mM EDTA, pH 7.4; oligo titrated into fixed ridinilazole
[3] = test system: dsOligo 1 (CGCGAATTCGCG) (DNA, duplex) CGCGAATTCGCG; test: as above; conditions: 100 mM NaCl; 50 mM Tris-HCl, 0.1 mM EDTA, pH 7.4; oligo titrated into fixed ridinilazole
[4] = test system: (poly[dG-dC])2 (DNA, polymer) GC; test: intrinsic fluorescence titration; conditions: 100 mM NaCl; 50 mM Tris-HCl, 0.1 mM EDTA, pH 7.4; 2 μM ridinilazole, polymer titrated
[5] = test system: dsOligo 1 (CGCGAATTCGCG) (DNA, duplex) CGCGAATTCGCG; test: X-ray crystallography (2.2 Å); conditions: minor groove at AATT; mixed 1:1, 4% DMSO; crystals at 14 °C
[6] = test system: poly(dA)·poly(dT) (DNA, polymer) A/T; test: intrinsic fluorescence titration; conditions: 100 mM NaCl; 50 mM Tris-HCl, 0.1 mM EDTA, pH 7.4; 2 μM ridinilazole, polymer titrated

binding [1]: yes
Kd [2]: 21.3 nM
Kd [3]: 21.6 nM
binding [4]: no
binding [5]: yes
binding [6]: yes
SMILES: c1cc(-c2nc3cc(-c4ccc5nc(-c6ccncc6)[nH]c5c4)ccc3[nH]2)ccn1
